# Measured values taken from patent publication US20050042293A1, “Polymeric systems for drug delivery and uses thereof” (The University of British Columbia, priority 1997, published 2005).
# Read-outs that look alike come from different tables or passages of the source.
# Legend:
# [1] = cited from earlier work
# LNCaP cells [2] = experiment: LNCaP cell proliferation in vitro (crystal violet, 492 nm absorbance); assay type: cell-based, human; settings: for % Growth: relative to control wells (100%)
# Method: LNCap cells are human metastatic prostate adenocarcinoma cells that are used as a model for prostate cancer (see, e.g., Pousette et al., Prostate 31:198, 1997). In one study, LNCaP cells were seeded at concentrations of 2×10^3 and 1×10^3 cells/well in 96 well plates. […] After incubation, the cells were fixed with 1% glutaraldehyde solution, and stained for 5 minutes with 0.5% crystal violet. The dye was successively eluted with 100 μl of buffer solution and the absorbance was read on a Titertek Multiskan microplate reader using a wavelength of 492 nm absorbance. Cell growth was expressed as a percentage relative to control wells in the absence of the compound (set at 100%).
# [3] = Water solubility studies by the present inventors
# [4] = In vitro drug release from TB:MePEG350 pastes into PBS/albumin with octanol phase; assay type: physicochemical; settings: 10% drug-loaded TB:MePEG350 (40:60) paste
# Method: Fifteen milligrams of each composition were placed in 20 mL glass scintillation vials and cooled to 4° C. to form uniform solid pellets. Five milliliters of ice cold phosphate-buffered saline (PBS; pH 7.4) containing 0.2% bovine serum albumin (Fraction 4, Boehringer Mannheim) were placed on top of the pellet followed by 5 mL of octanol (Fisher Scientific). The octanol formed an upper imiscible phase on top of the PBS so that any drug released into the PBS would partition into the octanol phase.
# UV/VIS analysis was performed by determining the absorbance at the specified wavelength. Calibration graphs of the drugs in octanol were established by measuring the absorbance of a set of standards of each drug in octanol in the 0 to 50 μg/mL concentration range.
# [5] = single dose in humans; cited from earlier work
# LNCaP cells [6] = experiment: Apoptosis / DNA fragmentation assay in LNCaP cells; assay type: cell-based, human
# [7] = Drug-dependent solidification: time for paste pellets to break up under stirring at 300 rpm at 37° C.; assay type: physicochemical; settings: 10% w/w drug in 40:60 (TB:MePEG350) paste; 1 hour at 37° C. then 300 rpm
# Method: Fifteen milligrams of each composition were placed in a 20 mL glass scintillation vial and cooled to 4° C. to form uniform solid pellets. Five milliliters of ice cold phosphate-buffered saline (PBS; pH 7.4) containing 0.2% bovine serum albumin (Fraction 4, Boehringer Mannheim) were placed on top of the pellet, and the vial was placed in a stationary position in a 37° C. oven for 1 hour. At this time, a stir bar was placed in the vial and stirring was commenced at 300 rpm until the paste pellet disintegrated.
compound,measurement,setting,value
C[C@@H]1[C@H](O)[C@@H](C)/C=C/C=C/C=C/C=C/C=C/C=C/C=C/[C@H](O[C@@H]2O[C@H](C)[C@@H](O)[C@H](N)[C@@H]2O)C[C@@H]2O[C@](O)(C[C@@H](O)C[C@@H](O)[C@H](O)CC[C@@H](O)C[C@@H](O)CC(=O)O[C@H]1C)C[C@H](O)[C@H]2C(=O)O [Amphotericin],solubility in water (in words),[1]; water at pH 6 to 7,insoluble in water
same,solubility in water (in words),[1]; water,insoluble in water
same,solubility,physchem; water,< 2 µg/mL
O=C1c2c(O)cccc2Cc2cccc(O)c21 [Anthralin],solubility in water (in words),[1]; water,practically insoluble in water
C[C@H]1C[C@H]2[C@@H]3CCC4=CC(=O)C=C[C@]4(C)[C@@]3(F)[C@@H](O)C[C@]2(C)[C@@]1(O)C(=O)CO [Betamethasone],solubility in water,[1]; water,190 µg/mL
CC[C@@]1(O)C(=O)OCc2c1cc1n(c2=O)Cc2cc3ccccc3nc2-1 [Camptothecin],solubility in water,[1]; water,1 to 2 µg/mL
same,solubility in water (in words),[1]; water,insoluble in water
same,percentage of cells to which the drug was toxic,LNCaP cells [2]; 0.001 nM,over 60%
same,492 nm Absorbance,"LNCaP cells [2]; 0.001 nM, 5 days",0.169 ± 0.05
same,% Growth,"LNCaP cells [2]; 0.001 nM, 5 days",36%
same,492 nm Absorbance,"LNCaP cells [2]; 0.05 nM, 5 days",0.14 ± 0.04
same,% Growth,"LNCaP cells [2]; 0.05 nM, 5 days",29%
same,492 nm Absorbance,"LNCaP cells [2]; 0.1 nM, 5 days",0.10 ± 0.02
same,% Growth,"LNCaP cells [2]; 0.1 nM, 5 days",21%
same,492 nm Absorbance,"LNCaP cells [2]; 1 nM, 5 days",0.10 ± 0.02
same,% Growth,"LNCaP cells [2]; 1 nM, 5 days",21%
same,492 nm Absorbance,"LNCaP cells [2]; 10 nM, 5 days",0.088 ± 0.02
same,% Growth,"LNCaP cells [2]; 10 nM, 5 days",17%
same,492 nm Absorbance,"LNCaP cells [2]; 100 nM, 5 days",0.038 ± 0.01
same,% Growth,"LNCaP cells [2]; 100 nM, 5 days",8%
same,IC50 against LNCaP cells (in words),LNCaP cells [2]; inferred from Table 12,femtomolar concentration range
same,solubility,[3]; water,< 2 µg/mL
COc1cc(/C=C/C(=O)CC(=O)/C=C/c2ccc(O)c(OC)c2)ccc1O [Curcumin],solubility in water (in words),[1]; water,practically insoluble in water
same,solubility,physchem; water,< 2 µg/mL
C[C@@H]1C[C@H]2[C@@H]3CCC4=CC(=O)C=C[C@]4(C)[C@@]3(F)[C@@H](O)C[C@]2(C)[C@@]1(O)C(=O)CO [Dexamethasone],solubility in water,[1]; water,10 µg/mL
O=c1c(-c2ccc(O)cc2)coc2cc(O)cc(O)c12 [Genistein],solubility in water (in words),[1]; water,practically insoluble in water
same,solubility in water (in words),"[1]; water, listed as genistein",insoluble in water
same,total encapsulated drug released,[4]; by day 7,50%
same,water solubility,[3]; water,approximately 1 μg/mL
same,solubility,"[3]; water, water solubility",< 2 µg/mL
COc1ccc2c(c1)c(CC(=O)O)c(C)n2C(=O)c1ccc(Cl)cc1 [Indomethacin],solubility in water (in words),[1]; water,practically insoluble in water
CC(=O)O[C@H]1C(=O)[C@@]2(C)[C@H]([C@H](OC(=O)c3ccccc3)[C@]3(O)C[C@H](OC(=O)[C@H](O)[C@@H](NC(=O)c4ccccc4)c4ccccc4)C(C)=C1C3(C)C)[C@]1(OC(C)=O)CO[C@@H]1C[C@@H]2O [Paclitaxel],solubility in water,[1]; water,1 to 2 µg/mL
same,solubility in water (in words),[1]; water,insoluble in water
same,toxic limit,[5],200 mg
same,solubility,physchem; water,< 2 µg/mL
same,DNA fragmentation (gel electrophoresis),"LNCaP cells [6]; 100 nM, 18 hours of treatment",induced DNA fragmentation
same,apoptosis by optical microscopy,"LNCaP cells [6]; paclitaxel treated cells, intracellular apoptotic bodies",clear evidence of apoptosis
same,492 nm Absorbance,"LNCaP cells [2]; 0.001 nM, 5 days",0.049 ± 0.05
same,% Growth,"LNCaP cells [2]; 0.001 nM, 5 days",100%
same,492 nm Absorbance,"LNCaP cells [2]; 0.01 nM, 5 days",0.40 ± 0.03
same,% Growth,"LNCaP cells [2]; 0.01 nM, 5 days",81%
same,492 nm Absorbance,"LNCaP cells [2]; 0.05 nM, 5 days",0.36 ± 0.02
same,% Growth,"LNCaP cells [2]; 0.05 nM, 5 days",73%
same,492 nm Absorbance,"LNCaP cells [2]; 0.1 nM, 5 days",0.20 ± 0.03
same,% Growth,"LNCaP cells [2]; 0.1 nM, 5 days",40%
same,492 nm Absorbance,"LNCaP cells [2]; 1 nM, 5 days",0.025 ± 0.01
same,% Growth,"LNCaP cells [2]; 1 nM, 5 days",5%
same,492 nm Absorbance,"LNCaP cells [2]; 10 nM, 5 days",0.027 ± 0.01
same,% Growth,"LNCaP cells [2]; 10 nM, 5 days",5%
same,492 nm Absorbance,"LNCaP cells [2]; 100 nM, 5 days",0.033 ± 0.01
same,% Growth,"LNCaP cells [2]; 100 nM, 5 days",6%
same,lowest concentration causing inhibition of LNCaP cell growth,LNCaP cells [2]; 5 days,10 pM
same,IC50,"LNCaP cells [2]; Homo sapiens, LNCaP, 120 h, 5 days incubation, read-out: IC50, LNCaP cell growth",~0.09 nM
CC1=C(/C=C/C(C)=C/C=C/C(C)=C/C(=O)O)C(C)(C)CCC1 [Tretinoin],solubility in water (in words),[1]; water,practically insoluble in water
same,solubility in water (in words),"[1]; water, listed as tretinoin",insoluble in water
same,solubility,physchem; water,< 2 µg/mL
COc1cc2c(c(OC)c1OC)-c1ccc(OC)c(=O)cc1[C@@H](NC(C)=O)CC2 [colchicine],time paste pellet stayed intact under stirring,[7],2.5 min
same,solubility,"[3]; pH 7.4, aqueous buffer, water solubility in PBS/albumin, PBS/albumin (pH 7.4)",> 500 µg/mL
CN(Cc1cnc2nc(N)nc(N)c2n1)c1ccc(C(=O)N[C@@H](CCC(=O)O)C(=O)O)cc1 [methotrexate],solubility,"physchem; pH 7.4, aqueous buffer",> 500 µg/mL
same,encapsulated drug released,[4]; first 24 hours,almost all the encapsulated drug
same,disintegration time under stirring,[7],30 s
C[C@@H]1[C@H](O)[C@@H](C)/C=C/C=C/CC/C=C/C=C/C=C/C=C/C(O[C@H]2O[C@H](C)[C@@H](O)[C@H](N)[C@@H]2O)CC2O[C@](O)(CC(O)C(O)CCC(O)CC(O)CC(O)CC(=O)O[C@H]1C)CC(O)C2C(=O)O (some centres unmarked) [nystatin],solubility in water (in words),[1]; water,insoluble in water
